Test results from PMC3138877 (Cancer research, 2011).
Like-named read-outs stand apart in the source and are kept apart here.

Experiments:
[1] = system: HepG2 hepatocellular carcinoma cells; assay: Cell Titer Blue viability, HepG2; type: cell-based, human; details: read-out: IC50 HepG2
[2] = system: H2030 lung cancer cells (KRAS G12C); assay: Cell Titer Blue viability, H2030; type: cell-based, human; details: read-out: IC50 H2030
[3] = system: PC-9 lung cancer cells (EGFR exon 19 del); assay: Cell Titer Blue viability, PC-9; type: cell-based, human; details: read-out: IC50 PC-9
[4] = system: HCC78 cells (SLC34A2-ROS fusion); assay: Cell Titer Blue viability, HCC78; type: cell-based, human
[5] = Pharmacokinetic study, plasma levels in mice; type: in vivo; details: for plasma level at 2 hours after dosing: mice, oral; for bioavailability in vivo / half-life in vivo: pharmacokinetic study
[6] = system: H3122 lung cancer cells harboring EML4-ALK E13;A20 (variant 1); assay: Cell Titer Blue viability, H3122; type: cell-based, human; details: for fold more potent than PF-1066 in H3122: growth inhibition
[7] = system: H2228 lung cancer cells (EML4-ALK E6a/b;A20); assay: Cell Titer Blue viability, H2228; type: cell-based, human; details: for IC50: read-out: IC50 H2228, 72h, Cell titer blue
[8] = system: HCC78 cells (SLC34A2-ROS fusion); details: cited from earlier work
[9] = system: SUDHL-1 lymphoma cells (NPM-ALK); assay: Cell Titer Blue viability, SUDHL-1; type: cell-based, human; details: read-out: IC50 SUDHL-1, 72h
[10] = system: SY5Y neuroblastoma cells (ALK F1174L); assay: Cell Titer Blue viability, SY5Y; type: cell-based, human; details: read-out: IC50 SY5Y, 72h
[11] = system: MKN-45 gastric carcinoma cells (MET dependent); assay: Cell Titer Blue viability, MKN-45; type: cell-based, human; details: read-out: IC50 MKN-45, 72h
H3122 cells = assay: Annexin V / propidium iodide apoptosis assay; type: cell-based, human; details: 72h, increasing concentrations
EML4-ALK E13;A20 = EML4-ALK E13;A20 (Homo sapiens, UniProt Q9HC35+Q9UM73); assay: Surrogate kinase assay; type: cell-based; details: 2 hours treatment, immunoblot, compared with PF-1066
[12] = system: EML4-ALK E13;A20, EML4-ALK E20;A20, EML4-ALK E6b;A20 and KIF5B-ALK; assay: Surrogate kinase assays on four ALK variants in 293 cells; type: cell-based
H3122 xenografts = assay: H3122 xenograft study in nude mice; type: in vivo; details: for growth of H3122 xenograft tumors vs vehicle: nude mice, oral gavage; for mouse weight: xenograft experiment
[13] = Blood-brain-barrier penetration in C57BL/6J mice; type: in vivo; details: for brain penetration (brain tissue concentration as % of plasma level): C57BL/6J mice, 2 hours after dosing
ROS1 = ROS1 (Homo sapiens, UniProt P08922); assay: Ambit screen, ROS1; details: read-out: IC50 ROS1 in vitro (Ambit screen); racemic forms
ALK = ALK (Homo sapiens, UniProt Q9UM73); assay: Ambit KINOMEscan dose-response profiling, ALK; details: for IC50: read-out: IC50 ALK (Ambit assays), Biochemical potency, Kinomescan
ALK, sequence (Q9UM73 19-1620): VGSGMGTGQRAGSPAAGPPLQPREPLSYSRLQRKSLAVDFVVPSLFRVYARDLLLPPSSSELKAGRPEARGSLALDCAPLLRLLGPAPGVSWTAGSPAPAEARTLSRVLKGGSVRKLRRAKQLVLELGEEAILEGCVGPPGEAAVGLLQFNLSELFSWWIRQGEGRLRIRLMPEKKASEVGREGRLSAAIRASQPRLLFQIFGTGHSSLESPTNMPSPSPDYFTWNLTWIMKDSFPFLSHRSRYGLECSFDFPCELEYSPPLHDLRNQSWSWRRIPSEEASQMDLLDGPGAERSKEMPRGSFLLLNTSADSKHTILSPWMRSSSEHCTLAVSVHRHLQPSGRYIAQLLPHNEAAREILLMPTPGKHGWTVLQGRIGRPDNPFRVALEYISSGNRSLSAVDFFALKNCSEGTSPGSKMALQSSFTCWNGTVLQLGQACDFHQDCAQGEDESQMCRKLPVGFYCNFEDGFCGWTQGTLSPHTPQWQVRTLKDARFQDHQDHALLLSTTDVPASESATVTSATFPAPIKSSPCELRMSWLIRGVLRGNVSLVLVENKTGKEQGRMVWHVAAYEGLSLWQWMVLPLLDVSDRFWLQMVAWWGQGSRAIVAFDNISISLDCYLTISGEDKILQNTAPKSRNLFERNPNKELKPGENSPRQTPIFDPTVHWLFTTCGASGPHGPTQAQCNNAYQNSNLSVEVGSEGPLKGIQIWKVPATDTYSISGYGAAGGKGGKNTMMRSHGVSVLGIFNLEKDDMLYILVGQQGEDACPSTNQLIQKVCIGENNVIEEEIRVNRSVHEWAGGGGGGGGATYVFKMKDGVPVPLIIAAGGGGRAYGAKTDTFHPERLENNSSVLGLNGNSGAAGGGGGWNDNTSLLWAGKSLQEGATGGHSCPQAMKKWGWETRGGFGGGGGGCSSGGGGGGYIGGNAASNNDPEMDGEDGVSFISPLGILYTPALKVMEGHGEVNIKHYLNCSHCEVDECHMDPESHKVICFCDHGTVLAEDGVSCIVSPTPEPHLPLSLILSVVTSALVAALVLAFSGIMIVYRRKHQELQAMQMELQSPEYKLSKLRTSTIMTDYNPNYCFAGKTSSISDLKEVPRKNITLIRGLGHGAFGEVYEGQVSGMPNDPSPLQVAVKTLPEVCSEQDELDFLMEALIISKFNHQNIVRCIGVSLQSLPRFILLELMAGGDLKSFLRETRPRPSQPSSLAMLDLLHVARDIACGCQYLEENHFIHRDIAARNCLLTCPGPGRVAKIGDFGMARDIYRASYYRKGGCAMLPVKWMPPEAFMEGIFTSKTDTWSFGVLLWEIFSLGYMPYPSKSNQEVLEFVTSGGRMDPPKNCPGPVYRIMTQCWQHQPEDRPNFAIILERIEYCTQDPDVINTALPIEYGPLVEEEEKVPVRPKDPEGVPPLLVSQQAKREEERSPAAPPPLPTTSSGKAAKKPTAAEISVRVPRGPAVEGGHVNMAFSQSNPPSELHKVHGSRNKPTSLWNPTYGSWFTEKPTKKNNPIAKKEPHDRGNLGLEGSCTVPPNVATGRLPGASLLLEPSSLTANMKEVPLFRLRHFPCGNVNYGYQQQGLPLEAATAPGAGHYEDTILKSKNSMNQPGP

MET = MET (Homo sapiens, UniProt P08581); assay: Ambit KINOMEscan dose-response profiling, MET; details: read-out: IC50 MET (Ambit assays), Biochemical potency
MET, sequence (P08581 25-1390): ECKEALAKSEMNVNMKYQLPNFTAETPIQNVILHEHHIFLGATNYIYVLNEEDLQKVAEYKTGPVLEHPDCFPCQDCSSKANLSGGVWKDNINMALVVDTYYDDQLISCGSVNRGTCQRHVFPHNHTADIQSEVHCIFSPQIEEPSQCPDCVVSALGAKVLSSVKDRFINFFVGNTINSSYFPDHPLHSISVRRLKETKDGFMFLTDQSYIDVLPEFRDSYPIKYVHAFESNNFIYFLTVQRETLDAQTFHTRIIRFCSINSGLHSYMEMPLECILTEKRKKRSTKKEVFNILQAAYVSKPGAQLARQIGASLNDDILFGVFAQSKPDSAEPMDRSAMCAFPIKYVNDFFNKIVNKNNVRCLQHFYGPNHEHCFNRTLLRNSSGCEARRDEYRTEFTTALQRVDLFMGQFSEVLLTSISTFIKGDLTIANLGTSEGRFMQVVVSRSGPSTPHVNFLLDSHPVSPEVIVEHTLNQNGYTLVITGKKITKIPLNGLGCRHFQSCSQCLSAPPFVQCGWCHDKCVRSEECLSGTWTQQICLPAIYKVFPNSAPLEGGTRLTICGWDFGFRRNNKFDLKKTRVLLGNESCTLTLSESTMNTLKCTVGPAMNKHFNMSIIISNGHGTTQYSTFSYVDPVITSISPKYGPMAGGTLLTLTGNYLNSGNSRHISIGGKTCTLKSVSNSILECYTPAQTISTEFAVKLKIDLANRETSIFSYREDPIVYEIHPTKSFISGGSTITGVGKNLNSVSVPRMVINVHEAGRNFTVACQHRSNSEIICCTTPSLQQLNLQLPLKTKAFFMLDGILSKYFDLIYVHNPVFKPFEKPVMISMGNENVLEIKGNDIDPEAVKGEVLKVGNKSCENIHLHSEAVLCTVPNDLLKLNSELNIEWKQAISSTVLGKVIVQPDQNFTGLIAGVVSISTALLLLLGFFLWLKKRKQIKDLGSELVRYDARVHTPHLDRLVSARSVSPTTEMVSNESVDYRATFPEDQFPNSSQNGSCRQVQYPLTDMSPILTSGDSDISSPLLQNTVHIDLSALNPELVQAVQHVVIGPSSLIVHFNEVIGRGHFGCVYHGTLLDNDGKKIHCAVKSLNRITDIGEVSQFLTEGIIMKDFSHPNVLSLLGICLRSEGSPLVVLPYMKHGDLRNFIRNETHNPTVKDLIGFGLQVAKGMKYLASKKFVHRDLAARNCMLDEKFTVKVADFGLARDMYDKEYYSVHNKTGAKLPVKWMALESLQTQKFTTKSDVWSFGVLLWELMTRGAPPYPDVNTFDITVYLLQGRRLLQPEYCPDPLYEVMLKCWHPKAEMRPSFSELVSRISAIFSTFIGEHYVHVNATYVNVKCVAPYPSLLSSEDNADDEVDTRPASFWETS

[14] = 10-day repeated oral toxicity study in SD rats; details: for no significant toxicity (NST) level: 10 days repeated oral administration
[15] = system: Ba/F3 cells expressing EML4-ALK E13;A20 WT; assay: Cell Titer Blue viability, Ba/F3 EML4-ALK WT; type: cell-based
[16] = system: Ba/F3 cells expressing EML4-ALK E13;A20 L1196M; assay: Cell Titer Blue viability, Ba/F3 EML4-ALK L1196M; type: cell-based; details: 72h
[17] = system: Ba/F3 cells expressing EML4-ALK E13;A20 C1156Y; assay: Cell Titer Blue viability, Ba/F3 EML4-ALK C1156Y; type: cell-based; details: 72h
EML4-ALK E13;A20 L1196M = EML4-ALK E13;A20 L1196M (Homo sapiens, UniProt Q9HC35+Q9UM73, L1196M); assay: Surrogate kinase assay, L1196M mutant in 293 cells; type: cell-based; details: 2 hours, at higher concentrations than for wild-type fusion
EML4-ALK E13;A20 C1156Y = EML4-ALK E13;A20 C1156Y (Homo sapiens, UniProt Q9HC35+Q9UM73, C1156Y); assay: Surrogate kinase assay, C1156Y mutant in 293 cells; type: cell-based; details: 2 hours, at higher concentrations than for wild-type fusion
[18] = system: EML4-ALK E13;A20 in H3122 lung cancer cells; assay: Endogenous ALK phosphorylation immunoblot in H3122; type: cell-based, human; details: 1 hour treatment, compared to PF-1066
[19] = read-out: IC50 HCC78, 72h, Cell titer blue
[20] = read-out: IC50 H3122, 72h, Cell titer blue
[21] = 72 hours, Chou-Talalay and Mix-Low methods

| Compound | IC50 [4, 19] [nM] | fold more potent than PF-1066 in H3122 [6] [fold] | IC50 [6, 20] [nM] | IC50 [7] [nM] | IC50 [9] [nM] | IC50 [10] [nM] | IC50 [11] [nM] | IC50 ([1]; 72h, Cell titer blue) [nM] | IC50 ([2]; 72h, Cell titer blue) [nM] | IC50 ([3]; 72h, Cell titer blue) [nM] | phospho-ALK in 293 cells transfected with EML4-ALK E13;A20 (EML4-ALK E13;A20) | bioavailability in vivo [5] | half-life in vivo [5] | fold more potent against ALK compared to PF-1066 (ALK) | IC50 (ALK) [nM] | IC50 (MET) [nM] | no significant toxicity (NST) level [14] [mg/kg] | also measured |
| --- | --- | --- | --- | --- | --- | --- | --- | --- | --- | --- | --- | --- | --- | --- | --- | --- | --- | --- |
| C[C@@H](Oc1cc(-c2cnn(C3CCNCC3)c2)cnc1N)c1c(Cl)ccc(F)c1Cl [PF-1066, crizotinib, reference compound] | 1360 |  |  |  |  |  |  |  |  |  |  |  |  |  |  |  |  | IC50 ([1]; Homo sapiens, HepG2, 72 h): 14500 nM; IC50 ([2]; Homo sapiens, NCI-H2030, 72 h): 2470 nM; IC50 ([3]; Homo sapiens, 72 h): 1670 nM; IC50 ([4]; Homo sapiens, HCC78, 72 h, read-out: IC50 HCC78, 72h, Cell titer blue): 1400 nM; concentration at 2 h ([5]; athymic nude (nu/nu), mouse, plasma, po, 50 mg/kg): 10.2 µM |
| CO[C@H]1C[C@@H]2CC[C@@H](C)[C@@](O)(O2)C(=O)C(=O)N2CCCC[C@H]2C(=O)O[C@H]([C@H](C)C[C@@H]2CC[C@@H](O)[C@H](OC)C2)CC(=O)[C@H](C)/C=C(\C)[C@@H](O)[C@@H](OC)C(=O)[C@H](C)C[C@H](C)/C=C/C=C/C=C/1C [Rapamycin, rapamycin, reference compound] |  |  |  |  |  |  |  |  |  |  |  |  |  |  |  |  |  | proliferation of H3122 cells, rapamycin alone ([6]; 72 hours): small but reproducible decrease; proliferation of H2228 cells, rapamycin alone ([7]; 72 hours): small but reproducible decrease |
| COc1cc(N2CCC(N3CCN(C)CC3)CC2)ccc1Nc1ncc(Cl)c(Nc2ccccc2S(=O)(=O)C(C)C)n1 [TAE-684, reference compound] |  |  |  |  |  |  |  |  |  |  |  |  |  |  |  |  |  | IC50 ([6]; Homo sapiens, NCI-H3122, 72 h, read-out: IC50 H3122 cell growth): 5 nM; sensitivity of HCC78 cells [8]: moderate sensitivity |
| C[C@@H](Oc1cc(C(=O)Nc2ccc(C(=O)N3CCN(C)CC3)cc2)nnc1N)c1c(Cl)ccc(F)c1Cl [X-376] | > 3000 | 3 | 77 | 57 | 32 | 142 | 150 | 15100 | 1430 | 3060 | greater reductions in phospho-ALK at lower concentrations of drug | substantial bioavailability | moderate half-lives | approximately 10 fold | 0.61 | 0.69 | 50 | apoptosis (Annexin V and propidium iodide) (H3122 cells): increased apoptosis; inhibition of ALK kinase activity of four ALK fusions [12]: dose-dependent inhibition of ALK kinase activity; differences in sensitivity among the four ALK variants ([12]; quantitative examination of immunoblots (data not shown)): no major differences in sensitivity; growth of H3122 xenograft tumors vs vehicle (H3122 xenografts; 50mg/kg bid): significantly delayed the growth of tumors; mouse weight (H3122 xenografts; 50mg/kg bid): unaffected; plasma level at 2 hours after dosing ([5]; 50mg/kg): 6.27 µM; brain penetration (brain tissue concentration as % of plasma level) ([13]; 50mg/kg): less; IC50 (ROS1): 19 nM; increase of the liver enzymes AST and ALT at NST level ([14]; 50 mg/kg): < 50% |
| C[C@@H]1CN(C(=O)c2ccc(NC(=O)c3cc(O[C@H](C)c4c(Cl)ccc(F)c4Cl)c(N)nn3)cc2)C[C@H](C)N1 [X-396] | > 3000 | 10 | 15 | 45 | 9 | 68 | 156 | 9640 | 757 | 2990 | greater reductions in phospho-ALK at lower concentrations of drug | substantial bioavailability | moderate half-lives | approximately 10 fold | < 0.4 | 0.74 | 80 | cell growth of H3122, combination with rapamycin [6, 21]: synergistic decrease of cell growth; cell growth of H2228, combination with rapamycin [7, 21]: synergistic decrease of cell growth; fold more potent than PF-1066 in Ba/F3 EML4-ALK E13;A20 wild-type ([15]; growth inhibition): ~10 fold; IC50 ([15]; read-out: IC50 Ba/F3 + EML4-ALK E13;A20 WT, 72h, Cell titer blue): 22 nM; IC50 ([16]; read-out: IC50 Ba/F3 + EML4-ALK E13;A20 L1196M, Cell titer blue): 106 nM; IC50 ([16]; read-out: IC50 Ba/F3 EML4-ALK E13;A20 L1196M): ≤ 100 nM; IC50 ([17]; read-out: IC50 Ba/F3 + EML4-ALK E13;A20 C1156Y, Cell titer blue): 48 nM; IC50 ([17]; read-out: IC50 Ba/F3 EML4-ALK E13;A20 C1156Y): ≤ 100 nM; ALK autophosphorylation, L1196M (EML4-ALK E13;A20 L1196M): significantly diminished; ALK autophosphorylation, C1156Y (EML4-ALK E13;A20 C1156Y): significantly diminished; endogenous ALK phosphorylation in H3122 [18]: inhibited ALK phosphorylation at lower concentrations of drug; growth of H3122 xenograft tumors vs vehicle (H3122 xenografts; 25mg/kg bid): significantly delayed the growth of tumors; mouse weight (H3122 xenografts; 25mg/kg bid): unaffected; plasma level at 2 hours after dosing ([5]; 25mg/kg): 2.28 µM; brain penetration (brain tissue concentration as % of plasma level) ([13]; 25mg/kg): 13%; projected concentration in human brain ([13]; projection from mouse study at a human plasma level of ∼500nM): about 65 nM; increase of the liver enzymes AST and ALT at NST level ([14]; 80mg/kg): < 50% |
